Usually Cmax stands for the maximum level reached in the sampled fluid or tissue.

Each structure is given as a SMILES string. Like-named read-outs stand apart in the source and are kept apart here.

Here are results for one molecule from patent US20200003760A1, “IN-VITRO METHODS FOR CLASSIFYING DRUGS ACCORDING TO THEIR POTENTIAL TO CAUSE LIVER CELL INJURY” (Board of Trustees of Michigan State University, priority 2018, published 2020).

Data set [1] deals with HepG2 cells. The experiment in a line: Drug/cytokine-induced cytotoxicity (% LDH release) concentration-response in HepG2 cells. It is filed as cell-based, human. Further details: key to Deltadiff: LDH release percentage points (drug/TNF Delta minus drug/VEH Delta). The note with it: for Emax: Homo sapiens, HepG2. In short, it runs like this:
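Cells at passage 6-16 were treated for 24 hours with drug or vehicle (water or DMSO <0.5%), alone or with TNF (10 ng/ml) and/or IFN (10 ng/ml), after overnight attachment. Cytotoxicity was scored as LDH released into medium; concentrations were expressed as [drug]/Cmax, with four-parameter logistic fits giving EC50, EC10 and R10 (+10 LDH points over baseline).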
A general note: Release of lactate dehydrogenase indicates damage to the cell membrane.

Data set [2] relates to HepG2 cells. The experiment in a line: Point of departure (POD) from censored concentration-response relationships in HepG2 cells. It is filed as cell-based, human. The note with it: censored CRRs, 4-parameter log-logistic model. The text has this: Partial, or censored, CRRs were then created using concentrations at or below the EC50. Nine CRC models were fit to the partial CRRs for all 24 drugs and compared to identify the best-fitting CRC model overall. Models were compared using Akaike Information Criteria (AIC; Akaike 1973, Burnham & Anderson 2002). The 4-parameter log-logistic model was selected to model censored CRRs for each of the 24 drugs since it provided the best fit (lowest AIC) for the majority of drugs. […] PODs provided a robust measure to characterize each of the CRCs using the low-concentration regions of the CRRs. In addition to POD.DRUG and POD.DRUG+TNF, POD.DIFF (i.e., POD.DRUG−POD.DRUG+TNF) and POD.RATIO (i.e., POD.DRUG/POD.DRUG+TNF) were used as covariates in the logistic regression model developed to classify the drugs according to their IDILI status. […] The horizontal blue line illustrates the mean control value estimated by pooling LDH % responses at the zero concentrations for both CRRs above. The horizontal dashed red line illustrates an upper limit of the pooled control data as the control mean plus 2 control standard deviations. PODs were then calculated for each curve as the effective concentration corresponding to the upper limit of the pooled control data, shown as vertical dashed red lines.

The conditions of data set [3]: maximal plasma concentration after pharmacologic dosing in human patients; cited from earlier work.

For the molecule `N[C@@H]1[C@H]2CN(c3nc4c(cc3F)c(=O)c(C(=O)O)cn4-c3ccc(F)cc3F)C[C@@H]12` [Trovafloxacin], the R10 in data set [1] (10 percent increase in LDH response above min, 0 when D10 = 0, drug alone (VEH)) was 0 [drug]/Cmax. Moreover, in data set [1] (10 percent increase in LDH response above min, 0 when D10 = 0, with IFN), the “R10 IFN” value is 0 [drug]/Cmax. The “R10 TNF” value in data set [1] (10 percent increase in LDH response above min, 0 when D10 = 0, with TNF) is 4.8 [drug]/Cmax. Further, the “R10 TNF/IFN” value in data set [1] (10 percent increase in LDH response above min, 0 when D10 = 0, with TNF and IFN) was 1.2 [drug]/Cmax. In addition, the Deltadiff in data set [1] (Delta of drug/TNF curve minus Delta of drug/VEH curve (LDH percentage)) is given as 27.4. Further, the “cytotoxic interaction of drug with TNF” value in data set [1] (HepG2, 24 h, TNF 10 ng/ml) is on record as “TNF significantly enhanced the cytotoxicity”. In data set [1] (HepG2, 24 h, TNF and IFN 10 ng/ml each), the “effect of IFN coexposure on the drug/TNF cytotoxic interaction” value is “coexposure to IFN enhanced the cytotoxic interaction”. The “cytotoxicity of drug on its own (LDH release)” value in data set [1] (HepG2, 24 h, absence of cytokines) is on record as “statistically significant increase in LDH release”. The Emax in data set [1] (categorical, Delta threshold 10 LDH percentage points, drug alone (VEH), read-out: D10) was less than 10%; in data set [1] (maximal LDH response, drug alone (VEH), 24 h, read-out: max), 18.7%. In data set [1] (categorical, D10TNF − D10VEH), the TNF change came to 1. Further, the “EC10 TNF” value in data set [1] (value corresponding to 10% of Delta, with TNF 10 ng/ml, NA = no significant increase) was 2.3 [drug]/Cmax. Moreover, the “EC10 TNF/IFN” value in data set [1] (value corresponding to 10% of Delta, with TNF and IFN, NA = no significant increase) is 0.5 [drug]/Cmax. In addition, the “POD.DRUG versus POD.DRUG+TNF” value in data set [2] is “POD.DRUG occurs at a relatively higher concentration than POD.DRUG+TNF”. Moreover, in data set [3], the peak concentration (Cmax) is 5 µM.
